# Columns and labels:
# E. coli BL21(DE3) SSO = test: Growth of chromosomal UBP integrants with or without dNaMTP and dTPT3TP (doubling time); assay type: cell-based; conditions: ΔrecA-Opt and Pol II+ΔrecA integrants, dNaMTP and dTPT3TP provided together in media
# Description: Mid-log phase cells WT-Opt, ΔrecA-Opt, and Pol II^+ΔrecA-Opt SSOs and their corresponding chromosomal UBP integrants (described above) were prepared using the following procedure. Saturated overnight cultures were prepared by inoculation of 2×YT containing chloramphenicol (5 μg/mL), dTPT3TP (37.5 μM), dNaMTP (150 μM), and KPi (50 mM, pH 7) from glycerol stock stabs and overnight growth (approximately 14 h) at 37° C. at 230 RPM. These cells were diluted to 0.03 OD600 in 500 μL 2×YT containing chloramphenicol (5 μg/mL), dTPT3TP (37.5 μM), dNaMTP (150 μM), and KPi (50 mM, pH 7) and grown at 37° C. at 230 RPM. Growth was monitored by OD600. Once cells reached mid-log phase (0.3-0.5 OD600), they were diluted to 0.013 OD600 in 500 μL 2×YT containing chloramphenicol (5 μg/mL), dTPT3TP (37.5 μM), dNaMTP (150 μM), and KPi (50 mM, pH 7) or 2×YT containing chloramphenicol (5 μg/mL) and KPi (50 mM, pH 7) in a 48-well plate and grown at 37° C. at 230 RPM. OD600 was measured every 30 min. This procedure was performed in triplicate for each strain starting from inoculation of overnight cultures.
# OD600 data from each experiment was analyzed to obtain a theoretical cell doubling time (FIG. 2B and FIGS. 8A-8B). […]
# Where ODi is the OD600 at time (t), OD0 is minimum OD600 value for a given data set, and CGrowth is the growth constant. […] Doubling times (DT) were calculated using the following equation: […]
# OneTaq DNA Polymerase = test: PCR amplification of long DNAs (overlap assembly PCR); assay type: biochemical; conditions: presence of dTPT3TP in PCR
# Description: The UBP knock-in cassette for the arsB locus (FIGS. 7A-7C) was produced through overlapping PCR of a 150-bp dsDNA containing a UBP and the kanamycin resistance gene of pKD13. The 150 bp DNA was produced with a 50-μL PCR using the same reaction solution conditions as above and the following temperature regime (time in mm:ss): [98° C. 02:00|5×(98° C. 00:10|50° C. 00:10|68° C. 04:00)|15×(98° C. 00:10|58° C. 00:10|68° C. 04:00)]. The kanamycin resistance gene amplicon was produced through PCR amplification off pKD13 using Q5 DNA polymerase as per manufacturer recommendations. The amplification of long DNAs (approximately 200 bp or longer) is inhibited by the presence of dTPT3TP. Therefore, the overlap assembly PCR of the UBP containing amplicon and kanamycin resistance gene amplicon was performed on large-scale (2 mL of reaction mixture split into 40 individual 50-μL reactions) with the following solution conditions: UBP containing amplicon (0.02 ng/μL), kanamycin resistance gene amplicon (0.02 ng/μL), primers (1 μM), dTPT3TP (5 μM), dNaMTP (100 μM), dNTPs (200 μM), MgSO4 (1.2 mM), OneTaq DNA Polymerase (0.025 U/μL), and OneTaq Standard Reaction Buffer (1 x). The reactions were subjected to the following temperature regime (time in mm:ss): [98° C. 02:00|5×(98° C. 00:10|50° C. 00:10|68° C. 04:00)|15×(98° C. 00:10|58° C. 00:10|68° C. 04:00)]. […]
Structure (SMILES),Growth defect of chromosomal UBP integrants (E. coli BL21(DE3) SSO),Amplification of long DNAs (approximately 200 bp or longer) (OneTaq DNA Polymerase)
O=P(O)(O)OP(=O)(O)OP(=O)(O)OC[C@H]1O[C@@H](n2ccc3ccsc3c2=S)C[C@@H]1O [dTPT3TP],almost entirely eliminated,inhibited
"COc1cc2ccccc2cc1[C@H]1C[C@H](O)[C@@H](COP(=O)(O)OP(=O)(O)OP(=O)(O)O)O1 [dNaMTP, triphosphate of dNaM]",almost entirely eliminated,–
